# According to patent publication US11945822B2, “Pyrazolo-triazine and/or pyrazolo-pxrimidine derivatives as selective inhibitor of cyclin dependent kinase” (QURIENT CO., LTD., priority 2018, dated 2024):
# Tested on: H460
# Assay: Cellular H460 viability assay (CellTiter-Glo, 72 hours)
# Assay type: cell-based
# Conditions: Homo sapiens, NCI-H460
# Description: (§1) All cell lines were routinely tested for mycoplasma.
# (§2) The effect of the CDK7 inhibitor to inhibit the growth of target cancer cells was evaluated through the 72 hours time period of viability assay. Briefly, the candidate cell line ware plated in 96 well plate at the following density of cells respectively. […] DMSO solvent without compound served as a control and final DMSO concentration less than 0.1%. After 72 hours of incubation at 37° C., 5% CO2 incubator, cells were analyzed for the viability using the CellTiter-Glo Luminescent Cell Viability Assay (Promega, Cat #G7570). All viability assays were performed in duplicate and Luminescence was read using an Envision (Perkin Elmer, USA). Data was analyzed using XLfit software.
row,IC50 [nM],Structure (SMILES)
1,< 1000,CC(=O)NC1CCN(c2nc(NCc3c(Cl)cccc3-n3ccc(C(C)(C)O)n3)n3ncc(C(C)C)c3n2)CC1 [Compound 199]
2,< 1000,CC(C)c1cnn2c(NCc3c(Cl)cccc3-n3ccc(C(=O)N4CCOCC4)n3)nc(N3CCC(N)CC3)nc12 [Compound 200]
3,< 1000,CC(C)c1cnn2c(NCc3c(Cl)cccc3-n3ccc(C(=O)NC4CCOCC4)n3)nc(N3CCC(N)CC3)nc12 [Compound 201]

# Tested on: MV4-11
# Assay: Cellular MV4-11 viability assay (CellTiter-Glo, 72 hours)
# Assay type: cell-based
# Conditions: Homo sapiens
# Description: as §1, §2
row,IC50 [nM],Structure (SMILES)
1,< 1000,CC(C)c1cnn2c(NCc3ccccc3-n3cc4cc(O)ccc4n3)nc(N3CCC(N)CC3)nc12 [Compound 159]
2,1000 to 10000,CC(=O)NC1CCN(c2nc(NCc3c(Cl)cccc3-n3ccc(C(C)(C)O)n3)n3ncc(C(C)C)c3n2)CC1 [Compound 199]
3,< 1000,CC(C)c1cnn2c(NCc3c(Cl)cccc3-n3ccc(C(=O)N4CCOCC4)n3)nc(N3CCC(N)CC3)nc12 [Compound 200]
4,< 1000,CC(C)c1cnn2c(NCc3c(Cl)cccc3-n3ccc(C(=O)NC4CCOCC4)n3)nc(N3CCC(N)CC3)nc12 [Compound 201]

# Biological target: T1, CDK5/p25 (Homo sapiens, UniProt Q00535)
# T1 construct: purchased Invitrogen PR8543B
# T1 sequence (Q00535 whole entry): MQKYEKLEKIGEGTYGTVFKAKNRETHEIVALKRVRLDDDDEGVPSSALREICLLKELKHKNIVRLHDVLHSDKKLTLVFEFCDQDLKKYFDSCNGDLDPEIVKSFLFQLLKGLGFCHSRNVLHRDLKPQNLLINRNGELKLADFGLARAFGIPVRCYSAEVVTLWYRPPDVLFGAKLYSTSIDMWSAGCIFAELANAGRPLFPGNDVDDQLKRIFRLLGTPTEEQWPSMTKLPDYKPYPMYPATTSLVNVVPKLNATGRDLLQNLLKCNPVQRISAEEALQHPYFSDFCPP
# T1 sequence (Q15078 99-307 partner limits assumed): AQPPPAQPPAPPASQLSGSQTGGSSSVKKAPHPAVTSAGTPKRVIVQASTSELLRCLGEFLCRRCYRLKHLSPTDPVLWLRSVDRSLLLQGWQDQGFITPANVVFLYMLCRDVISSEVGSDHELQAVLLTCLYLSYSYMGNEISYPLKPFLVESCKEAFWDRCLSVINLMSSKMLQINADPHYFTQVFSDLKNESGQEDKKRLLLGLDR
# Assay: Enzymatic assay for CDK5 (FRET based LANCE Ultra kinase assay)
# Assay type: biochemical
# Conditions: read-out: CDK5 enzymatic activity (IC50 range)
# Description: (§3) Enzymatic Binding Assay Protocol for CDK1, CDK2, CDK5 and CDK7
# (§4) Inhibition activity of the respective compound on CDK kinase under Km value of ATP was tested in FRET based The LANCE® Ultra kinase assay (Perkin Elmer), which uses a ULight™-labeled peptide substrate and an appropriate Europium-labeled anti-phospho-antibody. Test compounds were made with DMSO solutions, and then 4-fold serial dilutions for 8 doses were prepared using automated liquid handler (POD810, LABCYTE) and 80 nL/well of diluted compound solutions were added into the 384-well plates (Greiner, Cat #784075). And then 68 nM of ULight-MBP peptide (Perkin Elmer, Cat #TRF0109-M) and 5 ul/well of ATP (Sigma, Cat #A7699) were added to the plate. After 1 min centrifugation at 1000 rpm, Purified CDKs/Cyclin complex were added following concentrations respectively. 24 uM for CDK1/Cyclin B (Invitrogen, Cat #PR4768C), 22 uM for CDK2/Cyclin A (Invitrogen, Cat #PV6290), 10 uM for CDK5/p25 (Invitrogen, Cat #PR8543B) and […] for CDK7/Cyclin H/MNAT1 (Invitrogen, Cat #PR6749B) were added to the each corresponding plate for CDK1, CDK2, CDK5 and CDK7. Incubate at 23° C. for 60 min and then Eu-labeled anti-phospho-Myelin Basic Protein (PE, Cat #TRF0201-M) and EDTA (Invitrogen, Cat #15575038) mixture in Lance Detection Buffer (Perkin Elmer, Cat #CR97100) was added in each well. After additional incubation at 23° C. for 60 min, test articles were measured the fluorescence using Envision leader (Perkin Elmer, USA) [Laser as excitation light; […] as the first and the second emission filter]. Data was analyzed using XL Fit software.
row,IC50 [nM],Structure (SMILES)
1,100 to 1000,CC(C)c1cnn2c(NCc3ccccc3-n3cc4cc(O)ccc4n3)nc(N3CCC(N)CC3)nc12 [Compound 159]
2,> 1000,CC(=O)NC1CCN(c2nc(NCc3c(Cl)cccc3-n3ccc(C(C)(C)O)n3)n3ncc(C(C)C)c3n2)CC1 [Compound 199]
3,> 1000,CC(C)c1cnn2c(NCc3c(Cl)cccc3-n3ccc(C(=O)N4CCOCC4)n3)nc(N3CCC(N)CC3)nc12 [Compound 200]
4,100 to 1000,CC(C)c1cnn2c(NCc3c(Cl)cccc3-n3ccc(C(=O)NC4CCOCC4)n3)nc(N3CCC(N)CC3)nc12 [Compound 201]

# Biological target: T2, CDK1/Cyclin B (Homo sapiens, UniProt P06493)
# T2 construct: purchased Invitrogen PR4768C
# T2 sequence (P06493 whole entry): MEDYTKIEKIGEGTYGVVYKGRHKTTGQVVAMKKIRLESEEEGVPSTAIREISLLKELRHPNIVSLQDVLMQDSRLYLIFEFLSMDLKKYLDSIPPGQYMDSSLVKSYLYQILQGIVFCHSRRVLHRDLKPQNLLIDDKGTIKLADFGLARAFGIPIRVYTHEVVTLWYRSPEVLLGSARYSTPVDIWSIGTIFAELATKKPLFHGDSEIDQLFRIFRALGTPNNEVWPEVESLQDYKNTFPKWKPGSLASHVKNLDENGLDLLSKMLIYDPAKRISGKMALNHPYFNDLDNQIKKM
# T2 sequence (P14635 whole entry partner): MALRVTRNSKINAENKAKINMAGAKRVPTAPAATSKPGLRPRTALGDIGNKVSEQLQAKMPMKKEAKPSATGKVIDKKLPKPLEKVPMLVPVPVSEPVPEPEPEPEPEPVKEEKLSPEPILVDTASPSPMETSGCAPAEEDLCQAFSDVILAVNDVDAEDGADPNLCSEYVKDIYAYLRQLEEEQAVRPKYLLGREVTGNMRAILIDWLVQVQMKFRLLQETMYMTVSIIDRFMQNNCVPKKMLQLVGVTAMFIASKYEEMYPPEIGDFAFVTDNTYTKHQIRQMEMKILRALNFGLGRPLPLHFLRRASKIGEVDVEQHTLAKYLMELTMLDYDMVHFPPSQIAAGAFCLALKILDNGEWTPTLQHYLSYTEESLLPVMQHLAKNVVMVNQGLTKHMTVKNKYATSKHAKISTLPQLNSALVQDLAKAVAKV
# Assay: Enzymatic assay for CDK1 (FRET based LANCE Ultra kinase assay)
# Assay type: biochemical
# Conditions: read-out: CDK1 enzymatic activity (IC50 range)
# Description: as §3, §4
row,IC50 [nM],Structure (SMILES)
1,> 1000,CC(C)c1cnn2c(NCc3ccccc3-n3cc4cc(O)ccc4n3)nc(N3CCC(N)CC3)nc12 [Compound 159]
2,> 1000,CC(=O)NC1CCN(c2nc(NCc3c(Cl)cccc3-n3ccc(C(C)(C)O)n3)n3ncc(C(C)C)c3n2)CC1 [Compound 199]
3,> 1000,CC(C)c1cnn2c(NCc3c(Cl)cccc3-n3ccc(C(=O)N4CCOCC4)n3)nc(N3CCC(N)CC3)nc12 [Compound 200]
4,> 1000,CC(C)c1cnn2c(NCc3c(Cl)cccc3-n3ccc(C(=O)NC4CCOCC4)n3)nc(N3CCC(N)CC3)nc12 [Compound 201]

# Tested on: HCT116
# Assay: Cellular HCT116 viability assay (CellTiter-Glo, 72 hours)
# Assay type: cell-based
# Conditions: Homo sapiens, HCT-116
# Description: as §1, §2
row,IC50 [nM],Structure (SMILES)
1,< 1000,CC(C)c1cnn2c(NCc3ccccc3-n3cc4cc(O)ccc4n3)nc(N3CCC(N)CC3)nc12 [Compound 159]
2,< 1000,CC(=O)NC1CCN(c2nc(NCc3c(Cl)cccc3-n3ccc(C(C)(C)O)n3)n3ncc(C(C)C)c3n2)CC1 [Compound 199]
3,< 1000,CC(C)c1cnn2c(NCc3c(Cl)cccc3-n3ccc(C(=O)N4CCOCC4)n3)nc(N3CCC(N)CC3)nc12 [Compound 200]
4,< 1000,CC(C)c1cnn2c(NCc3c(Cl)cccc3-n3ccc(C(=O)NC4CCOCC4)n3)nc(N3CCC(N)CC3)nc12 [Compound 201]

# Biological target: T3, CDK2/Cyclin A (Homo sapiens, UniProt P24941)
# T3 construct: purchased Invitrogen PV6290
# Assay: Enzymatic assay for CDK2 (FRET based LANCE Ultra kinase assay)
# Assay type: biochemical
# Conditions: read-out: CDK2 enzymatic activity (IC50 range)
# Description: as §3, §4
row,IC50 [nM],Structure (SMILES)
1,100 to 1000,CC(C)c1cnn2c(NCc3ccccc3-n3cc4cc(O)ccc4n3)nc(N3CCC(N)CC3)nc12 [Compound 159]
2,> 1000,CC(=O)NC1CCN(c2nc(NCc3c(Cl)cccc3-n3ccc(C(C)(C)O)n3)n3ncc(C(C)C)c3n2)CC1 [Compound 199]
3,> 1000,CC(C)c1cnn2c(NCc3c(Cl)cccc3-n3ccc(C(=O)N4CCOCC4)n3)nc(N3CCC(N)CC3)nc12 [Compound 200]
4,> 1000,CC(C)c1cnn2c(NCc3c(Cl)cccc3-n3ccc(C(=O)NC4CCOCC4)n3)nc(N3CCC(N)CC3)nc12 [Compound 201]

# Biological target: T4, CDK7/Cyclin H/MNAT1 (Homo sapiens, UniProt P50613)
# T4 construct: purchased Invitrogen PR6749B
# T4 sequence (P50613 whole entry): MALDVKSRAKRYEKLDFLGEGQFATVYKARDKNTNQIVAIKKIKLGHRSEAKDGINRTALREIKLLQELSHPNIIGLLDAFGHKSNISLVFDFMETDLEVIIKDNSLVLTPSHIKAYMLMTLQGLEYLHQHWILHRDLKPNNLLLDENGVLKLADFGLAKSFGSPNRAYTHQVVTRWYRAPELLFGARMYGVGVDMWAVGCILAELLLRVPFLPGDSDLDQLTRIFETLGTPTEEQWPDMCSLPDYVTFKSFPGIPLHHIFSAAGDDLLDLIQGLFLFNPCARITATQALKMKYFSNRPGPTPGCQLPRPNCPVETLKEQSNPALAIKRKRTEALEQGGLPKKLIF
# T4 sequence (P51946 whole entry partner): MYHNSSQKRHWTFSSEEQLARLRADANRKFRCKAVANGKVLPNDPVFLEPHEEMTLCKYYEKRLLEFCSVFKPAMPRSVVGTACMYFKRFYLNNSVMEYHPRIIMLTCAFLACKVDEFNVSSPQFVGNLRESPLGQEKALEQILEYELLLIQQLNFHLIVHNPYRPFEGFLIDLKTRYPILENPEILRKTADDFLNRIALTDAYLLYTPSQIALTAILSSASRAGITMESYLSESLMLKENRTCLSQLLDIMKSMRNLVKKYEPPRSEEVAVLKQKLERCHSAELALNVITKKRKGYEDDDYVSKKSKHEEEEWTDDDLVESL
# T4 sequence (P51948 whole entry partner): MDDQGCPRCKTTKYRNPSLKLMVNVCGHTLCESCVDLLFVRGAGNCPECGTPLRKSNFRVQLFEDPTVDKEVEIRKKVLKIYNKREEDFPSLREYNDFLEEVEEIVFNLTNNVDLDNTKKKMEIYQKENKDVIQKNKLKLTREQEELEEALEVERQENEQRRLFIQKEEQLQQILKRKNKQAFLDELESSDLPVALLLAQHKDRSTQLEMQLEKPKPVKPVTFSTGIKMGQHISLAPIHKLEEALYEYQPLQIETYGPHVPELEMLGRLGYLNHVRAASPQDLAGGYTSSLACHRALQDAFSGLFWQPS
# Assay: Enzymatic assay for CDK7 (FRET based LANCE Ultra kinase assay)
# Assay type: biochemical
# Conditions: CDK7 over CDK1
# Description: as §3
# Inhibition activity of the respective compound on CDK kinase under Km value of ATP was tested in FRET based The LANCE® Ultra kinase assay (Perkin Elmer), which uses a ULight™-labeled peptide substrate and an appropriate Europium-labeled anti-phospho-antibody. […] After 1 min centrifugation at 1000 rpm, Purified CDKs/Cyclin complex were added following concentrations respectively. […] Data was analyzed using XL Fit software.
row,CDK1/CDK7: Selectivity of CDK7 inhibition over CDK1 inhibition,Structure (SMILES)
1,A (A=greater than 200 fold),CC(C)c1cnn2c(NCc3ccccc3-n3cc4cc(O)ccc4n3)nc(N3CCC(N)CC3)nc12 [Compound 159]
2,A (A=greater than 200 fold),CC(=O)NC1CCN(c2nc(NCc3c(Cl)cccc3-n3ccc(C(C)(C)O)n3)n3ncc(C(C)C)c3n2)CC1 [Compound 199]
3,A (A=greater than 200 fold),CC(C)c1cnn2c(NCc3c(Cl)cccc3-n3ccc(C(=O)N4CCOCC4)n3)nc(N3CCC(N)CC3)nc12 [Compound 200]
4,A (A=greater than 200 fold),CC(C)c1cnn2c(NCc3c(Cl)cccc3-n3ccc(C(=O)NC4CCOCC4)n3)nc(N3CCC(N)CC3)nc12 [Compound 201]

# Same assay, conditions: CDK7 over CDK2
row,CDK2/CDK7: Selectivity of CDK7 inhibition over CDK2 inhibition,Structure (SMILES)
1,A (A=greater than 200 fold),CC(=O)NC1CCN(c2nc(NCc3c(Cl)cccc3-n3ccc(C(C)(C)O)n3)n3ncc(C(C)C)c3n2)CC1 [Compound 199]
2,A (A=greater than 200 fold),CC(C)c1cnn2c(NCc3c(Cl)cccc3-n3ccc(C(=O)N4CCOCC4)n3)nc(N3CCC(N)CC3)nc12 [Compound 200]
3,A (A=greater than 200 fold),CC(C)c1cnn2c(NCc3c(Cl)cccc3-n3ccc(C(=O)NC4CCOCC4)n3)nc(N3CCC(N)CC3)nc12 [Compound 201]

row,Structure (SMILES),CDK2/CDK7: Selectivity of CDK7 inhibition over CDK2 inhibition
1,CC(C)c1cnn2c(NCc3ccccc3-n3cc4cc(O)ccc4n3)nc(N3CCC(N)CC3)nc12 [Compound 159],"B (B=less than 200 fold, but greater than 20 fold)"

# Same assay, conditions: CDK7 over CDK5
row,Structure (SMILES),CDK5/CDK7: Selectivity of CDK7 inhibition over CDK5 inhibition
1,CC(C)c1cnn2c(NCc3ccccc3-n3cc4cc(O)ccc4n3)nc(N3CCC(N)CC3)nc12 [Compound 159],"B (B=less than 200 fold, but greater than 20 fold)"
2,CC(=O)NC1CCN(c2nc(NCc3c(Cl)cccc3-n3ccc(C(C)(C)O)n3)n3ncc(C(C)C)c3n2)CC1 [Compound 199],A (A=greater than 200 fold)
3,CC(C)c1cnn2c(NCc3c(Cl)cccc3-n3ccc(C(=O)N4CCOCC4)n3)nc(N3CCC(N)CC3)nc12 [Compound 200],A (A=greater than 200 fold)
4,CC(C)c1cnn2c(NCc3c(Cl)cccc3-n3ccc(C(=O)NC4CCOCC4)n3)nc(N3CCC(N)CC3)nc12 [Compound 201],"B (B=less than 200 fold, but greater than 20 fold)"

# Same assay, conditions: read-out: CDK7 enzymatic activity (IC50 range)
row,IC50 [nM],Structure (SMILES)
1,< 100,CC(C)c1cnn2c(NCc3ccccc3-n3cc4cc(O)ccc4n3)nc(N3CCC(N)CC3)nc12 [Compound 159]
2,< 100,CC(=O)NC1CCN(c2nc(NCc3c(Cl)cccc3-n3ccc(C(C)(C)O)n3)n3ncc(C(C)C)c3n2)CC1 [Compound 199]
3,< 100,CC(C)c1cnn2c(NCc3c(Cl)cccc3-n3ccc(C(=O)N4CCOCC4)n3)nc(N3CCC(N)CC3)nc12 [Compound 200]
4,< 100,CC(C)c1cnn2c(NCc3c(Cl)cccc3-n3ccc(C(=O)NC4CCOCC4)n3)nc(N3CCC(N)CC3)nc12 [Compound 201]
